Test results as given in US12371454B2, “Cyclic peptide compound having Kras inhibitory action” (priority 2019, dated 2025).
Starred links: 1 amine or outer side, 2 acyl side, 3 side chain; linkers in the order of their positions; H or OH if unused. Positions of bridges follow the written chain, without caps; N, C: chain ends. Non-standard residues stand in square brackets, D forms with d. Residues, ends and D or L forms follow the SMILES beside them. *: point of attachment. hPhe(3,5-F2-4-CF3) = N[C@@H](CCc1cc(F)c(C(F)(F)F)c(F)c1)C(=O)O; hPhe(3-Cl-4-CF3) = N[C@@H](CCc1ccc(C(F)(F)F)c(Cl)c1)C(=O)O; NMePhe(4-CF3) = CN[C@@H](Cc1ccc(C(F)(F)F)cc1)C(=O)O; X23 = CN([C@@H](Cc1ccccc1OC(F)(F)F)C(=O)[*:2])[*:1]; NMePhe(4-Cl) = CN[C@@H](Cc1ccc(Cl)cc1)C(=O)O; NMePhe(2-CN) = CN[C@@H](Cc1ccccc1C#N)C(=O)O; X18 = Cc1ccc(Br)cc1C[C@H](N[*:1])C(=O)[*:2]; NMePhe(3-F) = CN[C@@H](Cc1cccc(F)c1)C(=O)O; NMedβ3hAla = C[C@H](CC(=O)[*:2])N(C)[*:1]; NMeNva(5,5-F2) = CN[C@@H](CCC(F)F)C(=O)O; NMeGly(cPent) = CN[C@H](C(=O)O)C1CCCC1; Phe(3-I) = N[C@@H](Cc1cccc(I)c1)C(=O)O; Pro(4,4-F2) = O=C(O)[C@@H]1CC(F)(F)CN1; NMeY = CN[C@@H](Cc1ccc(O)cc1)C(=O)O; NMeCha = CN[C@@H](CC1CCCCC1)C(=O)O; Azetidine(3,3-F2) = FC1(F)CN(*)C1; NMeChg = CN[C@H](C(=O)O)C1CCCCC1; NMeD = CN[C@@H](CC(=O)O)C(=O)O; NMeL = CN[C@@H](CC(C)C)C(=O)O; NMeV = CN[C@H](C(=O)O)C(C)C; d(β3hA) = C[C@@H](N)CC(=O)O; NMeAbu = CC[C@H](NC)C(=O)O; NMeA = CN[C@@H](C)C(=O)O; NMeAib = CNC(C)(C)C(=O)O; Nle = CCCC[C@H](N)C(=O)O; Piperidide = C1CCN(*)CC1; dNMeA = CN[C@H](C)C(=O)O; Ac5c = NC1(C(=O)O)CCCC1; Aze = O=C(O)[C@@H]1CCN1; Ac4c = NC1(C(=O)O)CCC1; Sar = CNCC(=O)O

Each compound was assayed against T1, Kras and SOS1 (biotin-tagged human Kras loaded with GDP, His-tagged human SOS1) (Homo sapiens, UniProt P01116, G12D) (assay: Protein-protein interaction inhibition between Kras and SOS1 (KrasGl2D-SOS PPI) using AlphaScreen). Settings: AlphaScreen; biotin-tagged human Kras loaded with GDP, His-tagged human SOS1; read-out: KRAS G12D-SOS PPI IC50.
T1 construct: made in house; host or cells: E. coli (stated for Kras only)
T1 sequence (P01116 1-188 isoform P01116-2 G12D): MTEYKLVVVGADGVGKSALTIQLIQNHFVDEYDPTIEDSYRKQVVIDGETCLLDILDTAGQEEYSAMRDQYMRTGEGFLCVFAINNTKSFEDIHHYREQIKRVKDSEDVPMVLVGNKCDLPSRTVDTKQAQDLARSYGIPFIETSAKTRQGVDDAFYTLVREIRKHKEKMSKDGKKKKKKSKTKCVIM
Format: binding
How it was run: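 Read-out is acceptor-bead light at 520-620 nm, arising when 680 nm-irradiated nickel donor beads pass singlet oxygen to streptavidin acceptors. The bead pair links His-tagged SOS1 with biotin-tagged, GDP-bound Kras from E. coli.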
`CCCC[C@@H]1NC(=O)[C@H](Cc2cc(Br)ccc2C)NC(=O)CN(C)C(=O)[C@H](Cc2ccc(OC)cc2)N(C)C(=O)[C@@H]2CCN2C(=O)[C@H](C)N(C)C(=O)[C@H]([C@@H](C)CC)NC(=O)[C@H](CC)N(C)C(=O)C[C@@H](C(=O)N2CCCCC2)N(C)C(=O)[C@H](CC(C)C)NC(=O)C(C)(C)N(C)C1=O` [Compound 1195] ([NMeAbu]I[NMeA][Aze][NMeY](Me)[Sar][X18][Nle][NMeAib]L[NMeD]-Piperidide; lactam N-11) showed an IC50 of 38 nM. For `CC[C@H](C)[C@@H]1NC(=O)[C@H](CC(C)C)N(C)C(=O)C[C@@H](C)N(C)C(=O)[C@H](C2CCCCC2)N(C)C(=O)C2(CCC2)NC(=O)[C@@H]2CC(F)(F)CN2C(=O)[C@H](CCc2cc(F)c(C(F)(F)F)c(F)c2)NC(=O)CN(C)C(=O)[C@H](Cc2ccc(C(F)(F)F)cc2)N(C)C(=O)CN(C)C(=O)CN(C)C1=O` [Compound 579] (cyclo([Ac4c][NMeChg][NMedβ3hAla][NMeL]I[Sar][Sar][NMePhe(4-CF3)][Sar][hPhe(3,5-F2-4-CF3)][Pro(4,4-F2)])), the IC50 was 17 nM. `CC[C@H](C)[C@@H]1NC(=O)[C@H](CC(C)C)N(C)C(=O)C[C@@H](C(=O)N(C)C)N(C)C(=O)[C@H](C2CCCC2)N(C)C(=O)[C@H](COC)NC(=O)[C@H](CC(=O)N2CC(F)(F)C2)N(C)C(=O)[C@H](CCc2ccc(C(F)(F)F)c(Cl)c2)NC(=O)CN(C)C(=O)[C@H](CC2CCCCC2)N(C)C(=O)[C@@H]2CCN2C(=O)[C@H](C)N(C)C1=O` [Compound 1108] ([NMeL]I[NMeA][Aze][NMeCha][Sar][hPhe(3-Cl-4-CF3)][NMeD](Azetidine(3,3-F2))S(Me)[NMeGly(cPent)][NMeD]-NMe2; lactam N-11) showed an IC50 of 11 nM. In the case of `CC[C@H](C)[C@@H]1NC(=O)[C@H](CC(C)C)N(C)C(=O)C[C@@H](C(=O)N2CCCCC2)N(C)C(=O)[C@H](CCC(F)F)N(C)C(=O)C2(CCCC2)NC(=O)[C@@H]2CCCN2C(=O)[C@H](CCc2ccc(C(F)(F)F)c(Cl)c2)NC(=O)CN(C)C(=O)[C@H](CC2CCCCC2)N(C)C(=O)CN(C)C(=O)CN(C)C1=O` [Compound 1782] ([NMeL]I[Sar][Sar][NMeCha][Sar][hPhe(3-Cl-4-CF3)]P[Ac5c][NMeNva(5,5-F2)][NMeD]-Piperidide; lactam N-11), the IC50 is reported as 2.2 nM. `CC[C@H](C)[C@@H]1NC(=O)[C@H](C)N(C)C(=O)C[C@@H](C)NC(=O)[C@H](C(C)C)N(C)C(=O)C2(CCCC2)NC(=O)[C@@H]2CCCN2C(=O)[C@H](CCc2ccc(C(F)(F)F)c(Cl)c2)NC(=O)[C@@H](C)N(C)C(=O)[C@H](CC2CCCCC2)N(C)C(=O)CN(C)C(=O)[C@@H]2CCN2C1=O` [Compound 2010] (cyclo([Ac5c][NMeV][d(β3hA)][NMeA]I[Aze][Sar][NMeCha][dNMeA][hPhe(3-Cl-4-CF3)]P)) was tested, and the IC50 was 220 nM. `CC[C@H](C)[C@@H]1NC(=O)[C@H](CC(C)C)N(C)C(=O)C[C@@H](C(=O)N(C)C)N(C)C(=O)[C@H](C2CCCC2)N(C)C(=O)C2(CCCC2)NC(=O)[C@H](Cc2cccc(F)c2)N(C)C(=O)[C@H](CCc2ccc(C(F)(F)F)c(Cl)c2)NC(=O)CN(C)C(=O)[C@H](CC2CCCCC2)N(C)C(=O)[C@@H]2CCN2C(=O)[C@H](C)N(C)C1=O` [Compound 95] ([NMeL]I[NMeA][Aze][NMeCha][Sar][hPhe(3-Cl-4-CF3)][NMePhe(3-F)][Ac5c][NMeGly(cPent)][NMeD]-NMe2; lactam N-11) gave an IC50 of 11 nM. For `CC[C@H](C)[C@@H]1NC(=O)[C@H](CC(C)C)N(C)C(=O)C[C@@H](C(=O)N2CCCCC2)N(C)C(=O)[C@H](C(C)C)N(C)C(=O)C2(CCCC2)NC(=O)[C@@H]2CCCN2C(=O)[C@H](CCc2ccc(C(F)(F)F)c(Cl)c2)NC(=O)CN(C)C(=O)[C@H](Cc2ccccc2C#N)N(C)C(=O)CN(C)C(=O)CN(C)C1=O` [Compound 935] ([NMeL]I[Sar][Sar][NMePhe(2-CN)][Sar][hPhe(3-Cl-4-CF3)]P[Ac5c][NMeV][NMeD]-Piperidide; lactam N-11), the IC50 was 6 nM. `CCCC[C@@H]1NC(=O)[C@H](Cc2cccc(I)c2)NC(=O)CN(C)C(=O)[C@H](Cc2ccc(Cl)cc2)N(C)C(=O)CN(C)C(=O)CN(C)C(=O)[C@H]([C@@H](C)CC)NC(=O)[C@H](CC(C)C)N(C)C(=O)C[C@@H](C(=O)N2CCCCC2)N(C)C(=O)[C@H](CC(C)C)NC(=O)[C@H](Cc2ccccc2OC(F)(F)F)N(C)C1=O` [Compound 111] ([NMeL]I[Sar][Sar][NMePhe(4-Cl)][Sar][Phe(3-I)][Nle][X23]L[NMeD]-Piperidide; lactam N-11) was tested, and the IC50 was 100 nM. Work on `CC[C@H](C)[C@@H]1NC(=O)[C@H](C)N(C)C(=O)C[C@@H](C)NC(=O)[C@H](C2CCCC2)N(C)C(=O)C2(CCCC2)NC(=O)[C@@H]2CCCN2C(=O)[C@H](CCc2ccc(C(F)(F)F)c(Cl)c2)NC(=O)[C@H]2CCCN2C(=O)[C@H](CC2CCCCC2)N(C)C(=O)[C@@H]2CCN2C(=O)CN(C)C1=O` [Compound 1479] (cyclo([Ac5c][NMeGly(cPent)][d(β3hA)][NMeA]I[Sar][Aze][NMeCha][dP][hPhe(3-Cl-4-CF3)]P)) yielded an IC50 of 120 nM.
